Assay results published in PubChem BioAssay (NCI).
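Briefly, cells in 96-well plates were exposed to five compound concentrations for 48 h, and endpoints were estimated by linear interpolation. GI50 = concentration required for 50% inhibition of growth. Definition used: TGI = concentration required for complete inhibition of growth.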

Columns and labels:
Assay in all cases: DTP human tumour cell line panel, 48 h
[1] = tested on: T-47D breast
[2] = tested on: HCT-116 colon
[3] = tested on: RXF 393 renal
[4] = tested on: SK-MEL-28 melanoma
[5] = tested on: A498 renal
[6] = tested on: COLO 205 colon
[7] = tested on: NCI-H522 lung
[8] = tested on: A549 NSCLC
[9] = tested on: BT-549 breast
[10] = tested on: SF-268 CNS

CCOC(=O)[C@@H](C)C[C@H](Cc1ccccc1)NC(=O)c1nc([C@@H](C[C@H](C(C)C)N(C)C(=O)[C@@H](NC(=O)[C@H]2CCCCN2C)C(C)C)OC(C)=O)sc1CCOCc1ccccc1
GI50 [1]: 72.1 nM | TGI [1]: > 11.1 µM | GI50 [2]: 47.3 nM | TGI [2]: 1.23 µM | GI50 [3]: 65.7 nM | TGI [3]: 1.53 µM | GI50 [4]: 540 nM | TGI [4]: 2.72 µM | GI50 [5]: 26.4 nM | TGI [5]: 0.417 µM | GI50 [6]: 52.2 nM | TGI [6]: 0.276 µM | GI50 [7]: 29 nM | TGI [7]: 0.319 µM | GI50 [8]: 101 nM | TGI [8]: 2.17 µM | GI50 [9]: 79.2 nM | TGI [9]: 0.918 µM | GI50 [10]: 158 nM | TGI [10]: 2.3 µM

COc1cccc(CCC2CCCN(c3cc(C)nc(N)n3)C2)c1 (stereo not given)
GI50 [1]: 238 nM | TGI [1]: 8.26 µM | GI50 [2]: 484 nM | TGI [2]: 11 µM | GI50 [3]: 368 nM | TGI [3]: 5.87 µM | GI50 [4]: 1120 nM | TGI [4]: 16 µM | GI50 [5]: 288 nM | TGI [5]: 2.51 µM | GI50 [6]: 313 nM | TGI [6]: 1.06 µM | GI50 [7]: 289 nM | TGI [7]: 3.16 µM | GI50 [8]: 722 nM | TGI [8]: 15.2 µM | GI50 [9]: 690 nM | TGI [9]: 13.5 µM | GI50 [10]: 643 nM | TGI [10]: 12.5 µM

O=C(c1ccco1)c1nc2cc(C(F)(F)F)ccc2nc1C(F)(F)F
GI50 [1]: 72000 nM | TGI [1]: > 100 µM | GI50 [2]: > 100000 nM | TGI [2]: > 100 µM | GI50 [3]: > 100000 nM | TGI [3]: > 100 µM | GI50 [4]: > 100000 nM | TGI [4]: > 100 µM | GI50 [5]: > 100000 nM | TGI [5]: > 100 µM | GI50 [6]: > 100000 nM | TGI [6]: > 100 µM | GI50 [7]: > 100000 nM | TGI [7]: > 100 µM | GI50 [8]: > 100000 nM | TGI [8]: > 100 µM | GI50 [9]: > 100000 nM | TGI [9]: > 100 µM | GI50 [10]: > 100000 nM | TGI [10]: > 100 µM

COc1ccc(N=Cc2c(O)ccc3c2oc2cc(Cl)c(O)c(Cl)c23)cc1
GI50 [1]: 7650 nM | TGI [1]: 46.4 µM | GI50 [2]: 21000 nM | TGI [2]: 56.9 µM | GI50 [3]: 14200 nM | TGI [3]: 31.4 µM | GI50 [4]: 15900 nM | TGI [4]: 40.4 µM | GI50 [5]: 14500 nM | TGI [5]: 28.5 µM | GI50 [6]: 16000 nM | TGI [6]: 33.2 µM | GI50 [7]: 9610 nM | TGI [7]: 28.2 µM | GI50 [8]: 14500 nM | TGI [8]: 48.2 µM | GI50 [9]: 13400 nM | TGI [9]: > 100 µM | GI50 [10]: 6680 nM | TGI [10]: 29.6 µM

CC12OOC(c3ccccc31)c1c2ccc2ccccc12 (stereo not given)
TGI [1]: 3.84 µM | TGI [2]: 3.21 µM | TGI [3]: 7.53 µM | TGI [4]: 27 µM | TGI [5]: 32.1 µM | TGI [6]: 3.24 µM | TGI [7]: 1.99 µM | TGI [8]: 8.43 µM | TGI [9]: 22.3 µM | TGI [10]: 28 µM

CCOC(=O)c1ccc(Nc2sc(C(=O)c3ccc(Br)cc3)c(N)c2C#N)cc1
GI50 [1]: 2850 nM | TGI [1]: > 100 µM | GI50 [2]: 732 nM | TGI [2]: > 100 µM | GI50 [3]: 1780 nM | TGI [3]: > 100 µM | GI50 [4]: 4810 nM | TGI [4]: > 100 µM | GI50 [5]: 321 nM | TGI [5]: 6.02 µM | GI50 [6]: 675 nM | TGI [6]: 2.47 µM | GI50 [7]: 530 nM | TGI [7]: > 100 µM | GI50 [8]: 1060 nM | TGI [8]: > 100 µM | GI50 [9]: > 100000 nM | TGI [9]: > 100 µM | GI50 [10]: 2560 nM | TGI [10]: > 100 µM

CO/C=C/C(=O)c1cc2cnc3c(=N)cc(NC(=O)C(C)C)c([nH]1)c23
GI50 [1]: 9.98 nM | TGI [1]: 0.0439 µM | GI50 [2]: 58.5 nM | TGI [2]: 0.282 µM | GI50 [3]: 30.1 nM | TGI [3]: 0.246 µM | GI50 [4]: 58.7 nM | TGI [4]: 0.509 µM | GI50 [5]: 100 nM | TGI [5]: 0.602 µM | GI50 [6]: 135 nM | TGI [6]: 0.869 µM | GI50 [7]: 969 nM | TGI [7]: 11 µM | GI50 [8]: 1520 nM | TGI [8]: 15.1 µM | GI50 [9]: 23.6 nM | TGI [9]: 0.258 µM | GI50 [10]: 61.6 nM | TGI [10]: 0.918 µM

CC(C)(C)N1CCC1CN (stereo not given)
GI50 [1]: > 100000 nM | TGI [1]: > 100 µM | GI50 [2]: > 100000 nM | TGI [2]: > 100 µM | GI50 [3]: > 100000 nM | TGI [3]: > 100 µM | GI50 [4]: > 100000 nM | TGI [4]: > 100 µM | GI50 [5]: > 100000 nM | TGI [5]: > 100 µM | GI50 [6]: > 100000 nM | TGI [6]: > 100 µM | GI50 [7]: > 100000 nM | TGI [7]: > 100 µM | GI50 [8]: > 100000 nM | TGI [8]: > 100 µM | GI50 [9]: > 100000 nM | TGI [9]: > 100 µM | GI50 [10]: > 100000 nM | TGI [10]: > 100 µM

C[C@]12CC[C@@H]3c4cc(OC(F)F)c(O)cc4CC[C@H]3[C@@H]1CC[C@@H]2OS(N)(=O)=O
GI50 [1]: 1020 nM | TGI [1]: 50.7 µM | GI50 [2]: 419 nM | TGI [2]: 18.9 µM | GI50 [3]: 315 nM | TGI [3]: 6.42 µM | GI50 [4]: 10500 nM | TGI [4]: 78.2 µM | GI50 [5]: 321 nM | TGI [5]: 4.35 µM | GI50 [6]: 1100 nM | TGI [6]: > 40 µM | GI50 [7]: 324 nM | TGI [7]: 18.4 µM | GI50 [8]: 968 nM | TGI [8]: > 100 µM | GI50 [9]: 2800 nM | TGI [9]: 45.3 µM | GI50 [10]: 3150 nM | TGI [10]: > 100 µM

CSc1ccc(-c2ccccc(=O)c2O)cc1
GI50 [1]: 985 nM | TGI [1]: > 100 µM | GI50 [2]: 506 nM | TGI [2]: 37.4 µM | GI50 [3]: 976 nM | TGI [3]: 16.2 µM | GI50 [4]: 663 nM | TGI [4]: 32.9 µM | GI50 [5]: 2710 nM | TGI [5]: 19 µM | GI50 [6]: 1980 nM | TGI [6]: > 100 µM | GI50 [7]: 470 nM | TGI [7]: 55.9 µM | GI50 [8]: 896 nM | TGI [8]: 83.8 µM | GI50 [9]: 873 nM | TGI [9]: 35.2 µM | GI50 [10]: 625 nM | TGI [10]: > 100 µM

Cc1c(O)c2ccccc2oc1=O
TGI [1]: > 100 µM | TGI [2]: > 100 µM | TGI [3]: > 100 µM | TGI [4]: > 100 µM | TGI [5]: > 100 µM | TGI [6]: > 100 µM | TGI [7]: > 100 µM | TGI [8]: > 100 µM | TGI [9]: > 100 µM | TGI [10]: > 100 µM

CC1(C)N=C(N)N=C(N)N1c1ccc(CCCCc2ccccc2)c(Cl)c1
GI50 [1]: 499 nM | TGI [1]: 12.8 µM | GI50 [2]: < 10 nM | TGI [2]: 1.61 µM | GI50 [3]: 334 nM | TGI [3]: 7.79 µM | GI50 [4]: 530 nM | TGI [4]: 13.4 µM | GI50 [5]: 746 nM | TGI [5]: 14.5 µM | GI50 [6]: 28.1 nM | TGI [6]: 1.68 µM | GI50 [7]: 50 nM | TGI [7]: 1.83 µM | GI50 [8]: < 10 nM | TGI [8]: 15 µM | GI50 [9]: 161 nM | TGI [9]: 5.19 µM | GI50 [10]: 53.6 nM | TGI [10]: 13.7 µM

Cc1cc(Nc2ccc(OCc3ccccc3)cc2)nc2cc(O)ccc12
GI50 [1]: 5930 nM | TGI [1]: 23.2 µM | GI50 [2]: 4000 nM | TGI [2]: 14.6 µM | GI50 [3]: 2950 nM | TGI [3]: 12.1 µM | GI50 [4]: 2950 nM | TGI [4]: 8.19 µM | GI50 [5]: 13000 nM | TGI [5]: 27 µM | GI50 [6]: 4840 nM | TGI [6]: 17 µM | GI50 [7]: 3010 nM | TGI [7]: 12.1 µM | GI50 [8]: 5230 nM | TGI [8]: 20.4 µM | GI50 [9]: 5460 nM | TGI [9]: 21 µM | GI50 [10]: 11900 nM | TGI [10]: 26.4 µM
